Data reported in patent US6818235B2, “Beneficial control of energy balance in periparturient cattle” (Church & Dwight Co., Inc., priority 2001, dated 2004).

Columns and labels:
Assay type in all cases: in vivo
[1] = test system: Holstein cows; test: Milk production and composition of postpartum cows fed CLA amide supplements
Excerpt: (§1) One hundred and twenty Holstein cows who were to begin their second or greater lactation are randomly selected to receive one of four Conjugated Linoleic Acid (CLA) supplementation regimens. Control cows receive no supplemental CLA (0 CLA), cows offered Treatment 1 receive the cis-9, trans-11 CLA isomer (9, 11 CLA), cows offered Treatment 2 receive the trans-10, cis-12 CLA isomer (10, 12 CLA) and cows offered Treatment 3 receive both isomers in a 50:50 mix (mixed CLA).
(§2) Isomers of CLA are obtained at 85% purity and are converted to their amide form (unsubstituted) for a rumen bypass rate of 65%. The remaining 15% of the 85% pure CLA isomers are the other isomers of CLA. Treatments 1 and 2 are formulated to deliver 7 grams of each CLA isomer per cow/day at the intestinal level. Therefore, 13 g/cow/day of the respective CLA amides are included in the daily rations offered as Total Mixed Rations (TMR) (i.e., 13 g CLA amide×85% purity×65% rumen bypass=7.18 g intestinal CLA isomer). Treatment 3 is formulated to deliver 7 grams of both isomers per cow per day in the intestine resulting in a 26 g supplement.
Cows are fed their CLA treatments beginning 7 days prepartum and remain on the supplement until 35 days postpartum. To maintain the diets isoenergetic with equal amounts of added fat to the diets, the CLA amides are substituted for Megalac (calcium salts of palm fatty acids). Postpartum diets are offered immediately postpartum.
Prepartum diets are formulated to meet or exceed NRC (2000) requirements at a daily intake of 10.6 kg of DM. This is done to assure that all feed is consumed in a 24-hour period. Postpartum diets are also formulated to meet or exceed requirements for a cow producing (ca.) 45 kg of milk daily at ad libitum consumption of DM.
Cows are milked four times per day to assure maximum expression of production potential and are housed and fed in individual tie-stalls to obtain individual estimates of DMI.
(§3) Other measurements include: Start-up milk production (defined as colostrum milk secreted in the first 24 hours postpartum) analyzed for milk fat and fatty acid composition; Daily milk production and composition (total fat and protein); Daily dry matter intake (DMI); Calculated net energy balance defined as net energy intake minus net energy secreted in milk expressed in megacalories (Mcal) per day.

[2] = test system: Holstein cows; test: Calculated net energy balance (net energy intake minus net energy secreted in milk)
Excerpt: as §1
Isomers of CLA are obtained at 85% purity and are converted to their amide form (unsubstituted) for a rumen bypass rate of 65%. The remaining 15% of the 85% pure CLA isomers are the other isomers of CLA. Treatments 1 and 2 are formulated to deliver 7 grams of each CLA isomer per cow/day at the intestinal level. […]
as §3
Calculated average energy balance postpartum is actual daily […] minus actual daily milk energy outputs.

[3] = test system: mammary glands of Holstein cows; test: Mammary gland total parenchymal DNA and RNA-to-DNA ratio at day 15 postpartum; details: excised mammary glands, five cows per treatment
Excerpt: as §1, §2
Cows are fed their CLA treatments beginning 7 days prepartum and remain on the supplement until 35 days postpartum. To maintain the diets isoenergetic with equal amounts of added fat to the diets, the CLA amides are substituted for Megalac (calcium salts of palm fatty acids). […]

[4] = average for the next 34 days postpartum
[5] = colostrum, first 24 hours postpartum

With `CCCCCC/C=C/C=C\CCCCCCCC(=O)O` [9, 11 CLA, cis-9, trans-11 conjugated linoleic acid] the “FCM (fat corrected milk, 4% fat)” value [1, 4] was 36.88a kg/d, the Milk [1, 4] was 40.2a kg/d and the Milk fat [1, 4] was 1.04a kg/d. The Milk fat % [1, 4] was 3.45a %, the “SCFA + MCFA:LCFA (ratio of short plus medium chain to long chain fatty acids in milk fat)” value [1, 4] was 58.42b and the “Startup milk fat %” value [1, 5] was 8.9c %. For the same molecule, the “Startup milk fat kg” value [1, 5] was 1.44b kg, the Startup milk ([1]; colostrum, first 24 hours postpartum, 7 g of each CLA isomer/cow/day at intestinal level) was 20.2a kg and the “Startup FCM (fat corrected milk, 4% fat)” value ([1]; first 24 hours postpartum) was 35.05c kg. The “Calculated average energy blance postpartum” value [2, 4] was −1.1c Mcal/d, the “Calculated energy balance at the end of day-1 postpartum” value ([2]; end of day-1 postpartum) was −3.6b Mcal and the “Total parenchymal DNA, lower compared to 0 CLA group” value [3] was 18%.
